Active and inactive are the calls of the source. The rule behind the calls is not given here.
How the values were obtained:
B16 = test: Cytotoxicity against […] cells after 48 hrs by MTT assay; assay type: functional, cell-based; conditions: Mus musculus, B16, 48 h
HT-29 = test: Cytotoxicity against human HT-29 cells after 48 hrs by MTT assay; assay type: functional, cell-based; conditions: HT-29, 48 h
MCF7 = test: cells; conditions: Homo sapiens, MCF7, 48 h
Description: Cytotoxicity against human MCF7 cells after 48 hrs by MTT assay

HeLa [1] = test: cells; conditions: Homo sapiens, 48 h
Description: Cytotoxicity against human HeLa cells after 48 hrs by MTT assay

HeLa [2] = test: Cell cycle arrest in human HeLa cells assessed as accumulation at sub-G1 phase at 0.5 uM after 48 hrs by propidium iodide staining based flow cytometry (reference value: 0.9%); assay type: functional
HeLa [3] = test: Cell cycle arrest in human HeLa cells assessed as accumulation at G1 phase at 0.5 uM after 48 hrs by propidium iodide staining based flow cytometry (reference value: 62.5%); assay type: functional
HeLa [4] = test: Cell cycle arrest in human HeLa cells assessed as accumulation at S phase at 0.5 uM after 48 hrs by propidium iodide staining based flow cytometry (reference value: 11.3%); assay type: functional
HeLa [5] = test: Cell cycle arrest in human HeLa cells assessed as accumulation at G2/M phase at 0.5 uM after 48 hrs by propidium iodide staining based flow cytometry (reference value: 19.3%); assay type: functional
Tubulin (Homo sapiens) = Tubulin (Homo sapiens) (UniProt P68371+Q9H4B7+P0DPH7+P68366+Q13509+Q71U36+P04350+Q3ZCM7+P07437+P68363+Q9BQE3+Q6PEY2+Q13885+Q9BVA1+Q9BUF5); test: Inhibition of tubulin polymerization in human HeLa cells assessed as disrupted microtubule organization at 0.5 uM after 48 hrs by immunohistochemical analysis; assay type: cell-based
Sus scrofa = organism: Sus scrofa; test: Inhibition of porcine brain tubulin polymerization at 3 uM after 1 hr by fluorescence assay relative to control
HeLa [6] = test: Induction of apoptosis in human HeLa cells assessed as caspase-3 activation at 0.5 uM after 48 hrs by fluorimetric method relative to control; assay type: functional
HeLa [7] = test: Induction of apoptosis in human HeLa cells assessed as […] condensation at 0.5 uM after 48 hrs by Hoechst 33342 staining based fluorescent microscopic method; assay type: functional, cell-based
HeLa [8] = test: Induction of apoptosis in human HeLa cells assessed as nuclear fragmentation at 0.5 uM after 48 hrs by Hoechst 33342 staining based fluorescent microscopic method; assay type: functional, cell-based

SMILES	IC50 (B16) [µM]	IC50 (HT-29) [µM]	IC50 (MCF7) [µM]	IC50 (HeLa [1]) [µM]	Activity (HeLa [2]) [%]	Activity (HeLa [3]) [%]	Activity (HeLa [4]) [%]	Activity (HeLa [5]) [%]	inhibition (Tubulin (Homo sapiens))	inhibition (Sus scrofa) [%]	fold change (FC) (HeLa [6])	Activity (HeLa [7])	Activity (HeLa [8])	Activity (HeLa [6])
COc1cc([C@@H]2c3cc4c(cc3[C@@H](NC(=O)Cn3cc(-c5cccc(N)c5)nn3)[C@H]3COC(=O)[C@H]23)OCO4)cc(OC)c1OC	22.5	15.6	21.9	25.4	–	–	–	–	–	–	–	–	–	–
COc1ccc2cc(-c3cn(CC(=O)N[C@@H]4c5cc6c(cc5[C@@H](c5cc(OC)c(OC)c(OC)c5)[C@H]5C(=O)OC[C@@H]54)OCO6)nn3)ccc2c1	14.3	13.6	6.9	15.4	–	–	–	–	–	–	–	–	–	–
COc1cc([C@@H]2c3cc4c(cc3[C@@H](O[C@@H]3O[C@@H]5CO[C@@H](C)O[C@H]5[C@H](O)[C@H]3O)[C@H]3COC(=O)[C@H]23)OCO4)cc(OC)c1O [ETOPOSIDE]	1.85	1.98	1.36	2.24	–	–	–	–	–	–	–	–	–	–
COc1cc([C@@H]2c3cc4c(cc3[C@@H](NC(=O)Cn3cc(-c5ccc(C(C)(C)C)cc5)nn3)[C@H]3COC(=O)[C@H]23)OCO4)cc(OC)c1OC	10.6	18.6	11.3	0.9	0.2	12.5	10.1	63.3	Active	46.4	4 - 6	Active	Active	–
COc1cc([C@@H]2c3cc4c(cc3[C@@H](NC(=O)Cn3cc(-c5ccc(Br)cc5)nn3)[C@H]3COC(=O)[C@H]23)OCO4)cc(OC)c1OC	10.1	0.1	0.9	0.07	0.1	13.9	10.5	62.7	Active	48.5	4 - 6	Active	Active	–
COc1cc([C@@H]2c3cc4c(cc3[C@H](O)[C@H]3COC(=O)[C@H]23)OCO4)cc(OC)c1OC [PODOFILOX]	2.12	1.26	3.75	2.36	–	–	–	–	–	50.2	–	–	–	Active
COc1cc([C@@H]2c3cc4c(cc3[C@@H](NC(=O)Cn3cc(-c5ccccc5)nn3)[C@H]3COC(=O)[C@H]23)OCO4)cc(OC)c1OC	21.5	20.1	8.1	19.6	–	–	–	–	–	–	–	–	–	–
COc1cc([C@@H]2c3cc4c(cc3[C@@H](NC(=O)Cn3cc(-c5cccs5)nn3)[C@H]3COC(=O)[C@H]23)OCO4)cc(OC)c1OC	18.2	19.5	8.9	6.5	–	–	–	–	–	–	–	–	–	–
COc1ccc(-c2cn(CC(=O)N[C@@H]3c4cc5c(cc4[C@@H](c4cc(OC)c(OC)c(OC)c4)[C@H]4C(=O)OC[C@@H]43)OCO5)nn2)cc1OC	22.4	13.9	15.8	17.9	–	–	–	–	–	–	–	–	–	–
COc1cc([C@@H]2c3cc4c(cc3[C@@H](NC(=O)Cn3cc(CCC5C(=O)c6ccccc6C5=O)nn3)[C@H]3COC(=O)[C@H]23)OCO4)cc(OC)c1OC	14.7	18.5	7.2	2.6	–	–	–	–	–	–	–	–	–	–
COc1cc([C@@H]2c3cc4c(cc3[C@@H](NC(=O)Cn3cc(-c5ccccn5)nn3)[C@H]3COC(=O)[C@H]23)OCO4)cc(OC)c1OC	19.5	18.4	14.5	23.6	–	–	–	–	–	–	–	–	–	–
COc1cc([C@@H]2c3cc4c(cc3[C@@H](NC(=O)Cn3cc(-c5cccc(Cl)c5)nn3)[C@H]3COC(=O)[C@H]23)OCO4)cc(OC)c1OC	23.6	17.5	38.2	28.4	–	–	–	–	–	–	–	–	–	–
COc1cc([C@@H]2c3cc4c(cc3[C@@H](NC(=O)Cn3cc(-c5cncn5C)nn3)[C@H]3COC(=O)[C@H]23)OCO4)cc(OC)c1OC	10.8	10.6	22.4	2.3	–	–	–	–	–	–	–	–	–	–
COc1cc([C@@H]2c3cc4c(cc3[C@@H](NC(=O)Cn3cc(-c5ccc(C)cc5)nn3)[C@H]3COC(=O)[C@H]23)OCO4)cc(OC)c1OC	23.5	22.5	17.1	16.8	–	–	–	–	–	–	–	–	–	–

Source: ChEMBL document CHEMBL4261551, “Click chemistry-assisted synthesis of triazolo linked podophyllotoxin conjugates as tubulin polymerization inhibitors” (Medchemcomm, 2017)
